# Measurements: paper PMC8327158, “PEGylated AdipoRon derivatives improve glucose and lipid metabolism under insulinopenic and high-fat diet conditions” (Journal of Lipid Research, 2021)
# Test system: HFD-fed wild-type mice
# Test: Sphingolipid levels in tissues and serum of HFD-fed mice by mass spectrometry
# Format: in vivo, mouse
# Details: for Cer 14:0 / Cer 16:0 / Cer 18:0 / Cer 18:1 / Cer 20:0 / Cer 22:0 / Cer 24:0 / Cer 24:1 / Cer 26:0 / Cer 26:1 / DeoxySphinganie / Deoxysphingosine / Hexosyl 14:0 / Hexosyl 16:0 / Hexosyl 18:0 / Hexosyl 20:0 / Hexosyl 22:0 / Hexosyl 24:0 / Hexosyl 24:1 / Lactosyl 16:0 / Lactosyl 18:0 / Lactosyl 22:0 / Lactosyl 24:1 / Lactosyl C24:0 / Sphingaine1P / Sphinganine / Sphingosine / Sphingosine1P / dCer 16:0 / dCer 18:0 / dCer 20:0 / dCer 22:0 / dCer 24:0 / dCer 24:1: 5 mg/kg twice a day 5 days, average ± SD
# Description: Six-week-old wild-type male mice were fed HFD for 4 weeks or 7 months In total, 5 mg/Kg of PBS, Adiporon, AdipoRonPEG5, AdipoRonPEG6HTL were injected twice a day for 5 days. After 5 days of treatment, systemic test is performed, and serum (Before and after treatment), subcutaneous, epididymal, liver, heart samples were harvested for qPCR and sphingolipid analysis.
# Flash-frozen tissue samples (~40 mg) in a borosilicate glass tube were quenched with 2.0 ml of organic extraction solvent (isopropanol: ethyl acetate, 15:85; v:v) and homogenized with a mechanical tissue disruptor. Immediately afterward, 20 μl of organic internal standard solution was added (Ceramide/Sphingoid Internal Standard Mixture II diluted 1:10 in ethanol). The mixture was vortexed for 20 s and sonicated in ultrasonic bath for 40 min at 40°C. The organic extract was allowed to reach room temperature, and 1.5 ml of HPLC water was added and a two-phase liquid-liquid extraction was performed. The upper phase was transferred to a new clean tube, and the lower aqueous phase containing the protein pellet was re-extracted with additional 2.0 ml of organic extraction solvent. The organic phases were combined and dried under nitrogen stream at 40°C. Dried extracts were stored at –80°C until analysis. For analysis of ceramides and sphingoid base species, the dried residues were reconstituted in 200 μl of methanol. Sphingomyelins required a sample dilution of 1:50 in methanol prior to analysis. Serum sphingolipids were extracted using a similar methodology requiring 25 μl of serum.
# Liver, subcutaneous adipose tissue, pancreas, pancreatic islets were initially homogenized in 500 μl of cold PBS using an ultrasonic probe disruptor and keeping the sample on ice during sonication. In total, 50 μl of aqueous homogenate was aliquoted for protein determination. In total, 400 μl of the lysate was immediately quenched in 2.0 ml of organic extraction solvent.
# In total, 5 μl of reconstituted samples was injected into an LC/MS/MS system for the analysis of ceramides and sphingoid bases, and 1 μl injection was required for the analysis of sphingomyelins. The system consisted of a Shimadzu LCMS-8050 triple-quadrupole mass spectrometer with the dual ion source operating in electrospray positive ionization mode. The mass spectrometer is coupled to a Shimadzu Nexera X2 UHPLC system equipped with three solvent delivery modules LC-30AD, three degassing units DGU-20A5R, an autosampler SIL-30ACMP, and a column oven CTO-20AC operating at 40°C (Shimadzu Scientific Instruments, Columbia, MD). Six sphingoid bases (d18:1 sphingosine, d18:1 sphingosine-1-phosphate, d18:1 deoxysphingosine, d18:0 sphinganine, d18:0 sphinganine-1-phosphate, d18:0 deoxysphinganine) and […] ceramide species and their metabolites (C16:0, C16:0 dihydroceramide, C16:0 glucosylceramide, C16:0 lactosylceramide, C16:0 sphingomyelin, C18:0, C18:0 dihydroceramide, C18:0 glucosylceramide, C18:0 sphingomyelin, C18:1, C20:0, C22:0, C22:0 glucosylceramide, C24:0, C24:0 dihydroceramide, C24:0 lactosylceramide, C24:0 sphingomyelin, C24:1, C24:1 dihydroceramide, C24:1 glucosylceramide, C24:1 sphingomyelin). Quantitative analysis of sphingolipids was achieved using selective reaction monitoring scan mode. Lipid separation was achieved by reverse phase LC on a 2.1 (i.d.) × 150 mm Ascentis Express C8, 2.7 micron (Supelco, Bellefonte, PA) column under gradient elution, using three different mobile phases: eluent A consisting of methanol/water/formic acid, 600/400/0.8, v/v/v with 5 mM ammonium formate, eluent B consisting of methanol/formic acid, 1,000/0.8, v/v with 5 mM ammonium formate, and eluent C consisting of CH3OH/CH2Cl2 350/650. The concentration of each metabolite was determined according to calibration curves using the peak-area ratio of analyte versus corresponding internal standard. Calibration curves were generated using serial dilutions of each target analyte.
compound,measurement,setting,value
O=C(COc1ccc(C(=O)c2ccccc2)cc1)NC1CCN(Cc2ccc(OCCOCCOCCOCCOCCO)cc2)CC1 [AdipoRonPEG5],pancreas S1P level,5 mg/kg,trend of elevating S1P
same,pancreas dihydroceramide levels,5 mg/kg,minimal impact
same,scWAT ceramide levels,5 mg/kg,neither AdipoRon nor AdipoRonPEG5 had a noticeable impact
same,pancreas C24:0 and C24:1 ceramides,"5 mg/kg, vs saline controls or AdipoRon",significant reduction
same,hepatic dihydroceramides,IP 5 mg/kg,drastically reduced
same,"serum dihydroceramides dC16:0, dC18:0, dC22:0, dC24:0",IP 5 mg/kg,drastically lowered
same,sphingoid bases including S1P in the liver,IP 5 mg/kg,overall increase
same,Cer 14:0,liver,10700.6 ± 4986.87 pg/mg
same,Cer 16:0,liver,10811.2 ± 3038.11 pg/mg
same,Cer 18:0,liver,41588.7 ± 18827.94 pg/mg
same,Cer 18:1,liver,0 pg/mg
same,Cer 20:0,liver,1285175.8 ± 314117.31 pg/mg
same,Cer 22:0,liver,17214621.7 ± 3730792.66 pg/mg
same,Cer 24:0,liver,13003125.0 ± 3100177.0 pg/mg
same,Cer 24:1,liver,11982004.5 ± 3750645.21 pg/mg
same,Cer 26:0,liver,114936.8 ± 43584.75 pg/mg
same,Cer 26:1,liver,108478.1 ± 38829.61 pg/mg
same,DeoxySphinganie,liver,17056.5 ± 5841.85 pg/mg
same,Deoxysphingosine,liver,674.4 ± 179.33 pg/mg
same,Hexosyl 14:0,liver,9405.4 ± 4098.51 pg/mg
same,Hexosyl 16:0,liver,2563091.7 ± 636477.68 pg/mg
same,Hexosyl 18:0,liver,8702.7 ± 4241.12 pg/mg
same,Hexosyl 20:0,liver,91341.0 ± 29325.4 pg/mg
same,Hexosyl 22:0,liver,18299628.4 ± 6151493.38 pg/mg
same,Hexosyl 24:0,liver,9345685.4 ± 2422218.78 pg/mg
same,Hexosyl 24:1,liver,8806042.3 ± 2575774.26 pg/mg
same,Lactosyl 16:0,liver,857779.3 ± 221964.15 pg/mg
same,Lactosyl 18:0,liver,0.0 ± 0.0 pg/mg
same,Lactosyl 22:0,liver,403630.8 ± 109007.39 pg/mg
same,Lactosyl 24:1,liver,403865.6 ± 85387.31 pg/mg
same,Lactosyl C24:0,liver,284732.8 ± 96368.82 pg/mg
same,Sphingaine1P,liver,124644.1 ± 37940.82 pg/mg
same,Sphinganine,liver,567456.6 ± 215845.28 pg/mg
same,Sphingosine,liver,1814140 ± 638775.97 pg/mg
same,Sphingosine1P,liver,423169.5 ± 201268.1 pg/mg
same,dCer 16:0,liver,7004.1 ± 1704.17 pg/mg
same,dCer 18:0,liver,30523.3 ± 10512.82 pg/mg
same,dCer 20:0,liver,17088.9 ± 5527.47 pg/mg
same,dCer 22:0,liver,85360 ± 20574 pg/mg
same,dCer 24:0,liver,355838.6 ± 67813.11 pg/mg
same,dCer 24:1,liver,64056.2 ± 12063.67 pg/mg
same,Cer 14:0,pancreas,20.8 ± 6.06 pg/mg
same,Cer 16:0,pancreas,28.6 ± 10.14 pg/mg
same,Cer 18:0,pancreas,31.4 ± 12.12 pg/mg
same,Cer 18:1,pancreas,0 pg/mg
same,Cer 20:0,pancreas,1410.3 ± 372.3 pg/mg
same,Cer 22:0,pancreas,5266.0 ± 1349.3 pg/mg
same,Cer 24:0,pancreas,16049.4 ± 4089.83 pg/mg
same,Cer 24:1,pancreas,7744.9 ± 1489.17 pg/mg
same,Cer 26:0,pancreas,162.6 ± 42.67 pg/mg
same,Cer 26:1,pancreas,88.6 ± 17.21 pg/mg
same,DeoxySphinganie,pancreas,2.4 ± 0.49 pg/mg
same,Deoxysphingosine,pancreas,0.0 ± 0.0 pg/mg
same,Hexosyl 14:0,pancreas,4.2 ± 0.35 pg/mg
same,Hexosyl 16:0,pancreas,2792.5 ± 371.94 pg/mg
same,Hexosyl 18:0,pancreas,8.8 ± 4.08 pg/mg
same,Hexosyl 20:0,pancreas,111.6 ± 39.83 pg/mg
same,Hexosyl 22:0,pancreas,5728.8 ± 1888.49 pg/mg
same,Hexosyl 24:0,pancreas,3233.9 ± 524.83 pg/mg
same,Hexosyl 24:1,pancreas,1360.1 ± 170.0 pg/mg
same,Lactosyl 16:0,pancreas,1043.4 ± 60.99 pg/mg
same,Lactosyl 18:0,pancreas,61.7 ± 15.72 pg/mg
same,Lactosyl 22:0,pancreas,258.7 ± 89.43 pg/mg
same,Lactosyl 24:1,pancreas,337.2 ± 90.18 pg/mg
same,Lactosyl C24:0,pancreas,2121.1 ± 714.63 pg/mg
same,Sphingaine1P,pancreas,25.6 ± 5.99 pg/mg
same,Sphinganine,pancreas,34.5 ± 9.74 pg/mg
same,Sphingosine,pancreas,219.2 ± 31.51 pg/mg
same,Sphingosine1P,pancreas,113.2 ± 32.02 pg/mg
same,dCer 16:0,pancreas,5.7 ± 3.12 pg/mg
same,dCer 18:0,pancreas,0.0 ± 0.0 pg/mg
same,dCer 20:0,pancreas,1.9 ± 0.7 pg/mg
same,dCer 22:0,pancreas,54.2 ± 43.08 pg/mg
same,dCer 24:0,pancreas,302.0 ± 155.43 pg/mg
same,dCer 24:1,pancreas,47.3 ± 31.67 pg/mg
same,Cer 14:0,scWAT,32099.4 ± 10520.94 pg/mg
same,Cer 16:0,scWAT,191093.1 ± 51596.09 pg/mg
same,Cer 18:0,scWAT,82819.6 ± 17887.79 pg/mg
same,Cer 18:1,scWAT,21443 ± 6799 pg/mg
same,Cer 20:0,scWAT,147177.5 ± 8589.73 pg/mg
same,Cer 22:0,scWAT,712843.5 ± 129405.16 pg/mg
same,Cer 24:0,scWAT,2685762.3 ± 976754.88 pg/mg
same,Cer 24:1,scWAT,3013765.2 ± 650894.91 pg/mg
same,Cer 26:0,scWAT,24885.1 ± 6744.06 pg/mg
same,Cer 26:1,scWAT,30570.9 ± 6986.86 pg/mg
same,DeoxySphinganie,scWAT,1329.3 ± 1128.06 pg/mg
same,Deoxysphingosine,scWAT,0.0 ± 0.0 pg/mg
same,Hexosyl 14:0,scWAT,5193.4 ± 2870.39 pg/mg
